Columns and labels:
[1] = test system: BJ-TERT/LT/ST/RASV12; test: Alamar blue viability assay, engineered tumor cells; assay type: cell-based, human
Procedure: Erastin was tested in a dilution series in five engineered cell lines derived from primary BJ fibroblasts. Cells were incubated with erastin for two days at 37° C. with 5% CO2, Alamar blue was added (10% final volume) and fluorescence measured (530 nm ex, 590 nm em). Cell lines harboring oncogenic RAS (triangles, circles and x's) were sensitive to erastin, but isogenic lines lacking oncogenic RAS (squares and diamonds) were resistant. Two different clones of engineered tumor cells (circles and triangles) responded similarly.
(a) BJ-TERT/LT/ST/RAS^V12 cells were treated with 9 μM erastin A1 for the indicated length of time, and the number of viable cells determined. (b) 1,000 BJ-TERT/LT/ST/RAS^V12 cells/well in 384-well plates were treated with erastin for 2 d, then alamar blue was added to a final concentration of 10% and the plates were incubated for 16 h. Red fluorescence resulting from reduction of alamar blue was detected on a Victor3 platereader. The percent growth inhibition is shown; error bars represent one SD. […] (c) TEM images (20,000× magnification) of BJ-TERT/LT/ST/RAS^V12 mitochondria after cells were treated with nothing, erastin (37 μM for 10 h) or staurosporine (STS, 1 μM for 5 h), and phase-contrast photograph of BJ-TERT/LT/ST/RAS^V12 cells 24 h after 9 μM erastin A1 treatment is also shown to indicate that even after cell death, nuclei are intact. (d) Anti-oxidants suppress erastin-induced death. BJ-TERT/LT/ST/RAS^V12 cells were treated as indicated and photographed. (e) The number of viable cells was quantified under each condition using a hemacytometer. (f) Iron chelators suppress erastin-induced cell death. Cells were seeded in 384-well plates (6,000 cells/well) and treated with 2-fold dilution series of erastin in the presence of 100 μM desferrioxamine mesylate (DFOM), 100 μM of iron chelator 1a, 100 μM of iron chelator 2, 10 μM or 1 μM of iron chelator 311. After 24 h, alamar blue was added and cell viability assayed. (g, h) Erastin-induced formation of oxidative species. BJ-TERT/LT/ST/RAS^V12 (shown in histogram plots, and in line graph as dark diamonds) or BJ-TERT cells (shown in line graph only, light circles) were treated with 4.6-μM erastin A1 and the level of intracellular oxidative species determined. (i, j) STS, but not erastin, induces PARP1 cleavage (red bands at top) in BJ-TERT/LT/ST/RAS^V12 cells and in A673, HT1080 and HeLa cells. NS: non-specific band. […] Cells were treated with STS or erastin, separated into mitochondrial and cytosolic fractions, and probed for cytochrome c (lower red band) and total VDAC (middle green band, pan-VDAC antibody). (1) Caspase-3 is not cleaved in response to erastin. Cells were treated as indicated and probed with an anti-caspase-3 antibody that recognizes both the full length and the cleaved, active form (lower band). […] ATP levels were measured, viable cells determined by Trypan Blue exclusion and ATP per viable cell determined. Abbreviations: DMSO, dimethylsulfoxide; BHT, butylated hydroxytoluene; TOC, alpha-tocopherol; ERA, erastin A1; CAR, beta-carotene; STS, staurosprine.
(a) Calu-1 lung carcinoma cells harboring oncogenic KRAS were infected with lentivirus containing shRNAs targeting KRAS or GFP. Sequences of shRNAs are indicated by starting nucleotide (nt) in the KRAS mRNA coding sequence. Cells were treated with erastin and viability measured by Trypan Blue exclusion. (b) Knockdown of KRAS was confirmed by western blot. (c,d) A673 cells harboring oncogenic BRAF were infected with lentiviral shRNAs targeting BRAF exon 5 (c) or the 5′ UTR (d), luciferase (LUC)(c) or GFP (d). Cells were treated with erastin and viability measured using Alamar Blue (c) and Trypan Blue (d). (e) Knockdown of BRAF was confirmed by western blot. […] BJ-TERT/LT/ST/RAS^V12 cells were treated with erastin alone or in with a MEK inhibitor U0126 (20 μM), MEK inhibitor I (10 μM) or MEK 1/2 inhibitor (50 μM). After 48 h, viability was determined using Trypan Blue. […]

[2] = test system: A673; test: Response of tumor cell lines to erastin (dose-response); assay type: cell-based, human
Procedure: (§1) In certain aspects, the invention provides that erastin is lethal to tumor cells with activating mutations in proteins downstream of RAS proteins. Dose-response of 30 tumor cell lines to erastin was measured, and at least 50% inhibition of cell viability in 19 of the 30 tumor cell lines was formed. Numerous sarcoma-derived tumor cell lines were sensitive to erastin, consistent with the fact that erastin was discovered in an engineered tumor cell line created from human fibroblasts. Non-limiting examples include, HT1080 fibrosarcoma cells. HT1080 fibrosarcoma cells, which have a known activating mutation in NRAS, (Plattner, R. et al. Differential contribution of the ERK and JNK mitogen-activated protein kinase cascades to Ras transformation of HT1080 fibrosarcoma and DLD-1 colon carcinoma cells. Oncogene. 18: 1807-17 (1999), were quite sensitive to erastin. In order to determine whether RAS-activated signaling was modulated in cell lines that respond to erastin, the phosphorylation status of ERK1/2 in 12 sarcoma cell lines with a range of sensitivities to erastin was evaluated. In certain aspects, the invention provides a non-zero correlation, such as for example, a correlation coefficient of 0.41, between ERK1/2 phosphorylation status and erastin sensitivity in these cell lines.
(§2) Given that oncogenic RAS activates at least four downstream pathways, analysis was performed to identify which downstream effects were necessary for erastin sensitivity. In certain embodiments, the invention provides that erastin inhibits growth and kills genuine tumor cells with RAS mutations. In other embodiments, the invention provides measures of the dose-response of 29 tumor cell lines to erastin, wherein there is at least 50% inhibition of viability in 18 of the cell lines (Table 4). Numerous sarcoma-derived tumor cell lines were sensitive to erastin, consistent with the fact that erastin was discovered in an engineered tumor cell line created from human fibroblasts.

[3] = test system: BJEH; test: as above; assay type: cell-based, human; conditions: BJ-TERT
Procedure: as §1, §2

[4] = test system: BJELR; test: as above; assay type: cell-based, human; conditions: BJ-TERT/LT/ST/RASV12
Procedure: as §1, §2

[5] = test system: HT1080; test: as above; assay type: cell-based, human; conditions: HT 1080
Procedure: as §1, §2

[6] = test system: EWS502; test: as above; assay type: cell-based; conditions: EWS 502
Procedure: as §1, §2

[7] = test system: HL-60; test: as above; assay type: cell-based
Procedure: as §1, §2

[8] = test system: SK-ES-1; test: as above; assay type: cell-based; conditions: SICES1
Procedure: as §1, §2

[9] = test system: SK-N-MC; test: as above; assay type: cell-based
Procedure: as §1, §2

[10] = test system: SW872; test: as above; assay type: cell-based; conditions: SW 872
Procedure: as §1, §2

[11] = test system: TC32; test: as above; assay type: cell-based; conditions: TC 32
Procedure: as §1, §2

[12] = test system: TC71; test: as above; assay type: cell-based; conditions: TC 71
Procedure: as §1, §2

Q: For CCOc1ccccc1-n1c(C(C)N2CCN(C(=O)COc3ccc(Cl)cc3)CC2)nc2ccccc2c1=O (stereo not shown) [erastin], which RAS-selective lethality [1] is on record?
A: The RAS-selective lethality was “at least 16 fold”.

Q: What about the RAS selectivity ([1]; BJ-TERT/LT/ST vs BJ-TERT/LT/ST/RASV12) of the same compound?
A: The RAS selectivity was greater than 16.

Q: What about the “Erastin Sensitivity (maximum killing induced by erastin)” value (“Erastin Sensitivity” below) [2] of the same compound?
A: The value was 0.54.

Q: And the “Erastin Sensitivity” value [3]?
A: Its value is 0.22.

Q: And the “Erastin Sensitivity” value [4]?
A: The value was 1.00.

Q: And the “Erastin Sensitivity” value [5]?
A: Its value is 0.98.

Q: And the “Erastin Sensitivity” value [6]?
A: Its value is 0.42.

Q: And the “Erastin Sensitivity” value [7]?
A: The value was 0.00.

Q: And the “Erastin Sensitivity” value [8]?
A: Its value is 0.96.

Q: And the “Erastin Sensitivity” value [9]?
A: Its value is 0.95.

Q: And the “Erastin Sensitivity” value [10]?
A: The value was 0.00.

Q: And the “Erastin Sensitivity” value [11]?
A: The value was 0.88.

Q: What about the “Erastin Sensitivity” value [12] of the same compound?
A: The value was 0.92.
